According to ChEMBL document CHEMBL3507680, “University of Dundee, Gates Library screen for HepG2 cell viability”:

Assay: Human HepG2 cell viability assay in 384 well format
Assay type: toxicity, cell-based
Set-up: dose 125 nL, time 70.5 hour; concentration not given beside the values
Settings: HepG2 cells, read-out: Inhibition

| Compound | cytotoxicity at 70.5 h |
| --- | --- |
| O=C(Cc1ccccn1)N1CCc2ncnc(NC3CCC3)c2CC1 | -9.73% |
| CCC(O)CN1CCN(C(=O)c2cnn(-c3ccccc3F)c2)CC1 (stereo unspecified) | 2.94% |
| CC(Cn1cc(Cl)cn1)C(=O)Nc1ccc(CN2CCCCCC2)cc1 (stereo unspecified) | 18.9% |
| Cc1ccc2c(c1)OCCN2C(=O)c1ccc(=O)n(C)c1 | -5.4% |
| O=C(Cc1ccccc1Cl)Nc1cc(N2CCCC2)ncn1 | -0.171% |
| CCn1c(Cn2cncn2)nnc1C1CCN(Cc2ccccn2)CC1 | 6.14% |
| CN(C)C(CNc1c(NCc2ccco2)c(=O)c1=O)c1ccccc1 (stereo unspecified) | -8.7% |
| Cc1cnn(C2CN(Cc3nnc(-c4ccccc4Cl)o3)C2)c1 | 5.37% |
| CC(C)N(Cc1ccc(C#N)cc1)Cc1nnsc1Cl | -15.5% |
| CN(C)C(=O)CO[C@H]1CO[C@@]2(CCN(Cc3ccoc3)C2)C1 | -5.9% |
| CCNC(=O)NC(=O)C(C)Nc1ccccc1OCCOC (stereo unspecified) | -11.3% |
| COCC1CC2(CCN(Cc3ccc(OC)cc3)CC2)CN1C(C)C (stereo unspecified) | -13.7% |
| COc1ccc(-c2csc(N)c2C#N)cc1OC | -13% |
| Cc1noc(NC(=O)c2ccc(F)cc2)n1 | -3.99% |
| CCOc1ncccc1NC(=O)c1cc(C)sc1C | -11% |
| O=C1CSc2ccc(C(=O)N3CCCC(n4cccn4)C3)cc2N1 (stereo unspecified) | -0.55% |
| COCCNC(=O)Cn1cc(NC(=O)c2cc(Cl)c(Cl)n2C)cn1 | 0.862% |
| Cc1cccc(NC(=O)N2CCCn3cnc(CN(C)C(C)C)c3C2)c1 | 17.2% |
| CNc1oc(-c2ccc(OC)c(S(=O)(=O)N3CCCC3)c2)nc1C#N | -21.8% |
| CNC(=O)N1CCC2(CC1)C(=O)N(C)c1c(F)cccc12 | 4.07% |
| O=C(NCC1(O)CCC1)NC(c1cc(F)ccc1F)C1CC1 (stereo unspecified) | -6.17% |

| Compound | cytotoxicity at 70.5 h |
| --- | --- |
| CCN(C(=O)c1nc2c(s1)CCCN2c1ccc(C)nn1)C(C)C | -3.47% |
| O=C1[C@H]2CN(Cc3ccoc3)C[C@H]2CN1Cc1cccnc1 | -11.8% |
| Cc1nc(-c2cccs2)ccc1C(=O)N1CCN(CC(C)O)CC1 (stereo unspecified) | -2.84% |
| CCc1cc(N(C)Cc2cc[nH]n2)n2nc(C)c(C)c2n1 | -4.44% |
| COc1ccccc1OCC(=O)Nc1ncccc1Cl | -0.838% |
| CN1CC(NC(=O)CCCc2cc(Cl)sc2Cl)CCC1=O (stereo unspecified) | -6.53% |
| O=C(c1coc(-c2ccccc2)n1)N1CCCCC1 | -10.3% |
| CC(C)c1noc(CS(=O)(=O)CC(=O)NCc2cccs2)n1 | -9.72% |
| O=C(NC1CCN(CC2CC2)C1)c1ccc(N2CCC(O)CC2)cc1 (stereo unspecified) | -7.24% |
| CCc1noc(CN2CCC(c3ccnn3CCO)CC2)n1 | -5.37% |
| COCCN1CCC(NCc2c(F)cccc2F)C1 (stereo unspecified) | -0.0127% |
| O=C(Cn1ccc(=O)c2ccccc21)Nc1cnccc1O | 8.04% |
| O=C1NCC2(CCCN(C(=O)Nc3ccc4scnc4c3)CC2)O1 (stereo unspecified) | -16.7% |
| O=C(c1cccc(OCc2cscn2)c1)N1CCOCC1 | 0.0866% |
| COc1ccc2c(c1)C1(CCN(Cc3cnn(C)c3)CC1)N(C)CC2 | -0.704% |
| CCc1c(C)nc(SCc2ccccn2)[nH]c1=O | -5.97% |
| Fc1ccc(C2(NCc3noc(C4CC4)n3)CCC2)cc1 | 8.34% |
| O=C([C@H]1C[C@H]2OCC[C@H]2N(C(=O)c2ccccn2)C1)N1CCCCO1 | -6.44% |
| Cc1cn2c(=O)c(-c3ccnc(NC4CCOCC4)n3)cnc2s1 | -4.12% |
| COCCN(Cc1ccc(F)cc1Cl)C(=O)c1csnn1 | -2.37% |
| NC(=O)c1nc(COc2ccc3c(c2)OCO3)no1 | -12.9% |

| Compound | cytotoxicity at 70.5 h |
| --- | --- |
| Cc1n[nH]c(C2CN(C(=O)c3ccn(C)c(=O)c3)CCO2)n1 (stereo unspecified) | 31.8% |
| Cc1ccccc1CC(=O)N(C)C1CCCC1 | -4.43% |
| CO[C@H]1CC[C@H]2[C@H]1OCCN2C(=O)c1ccc(C)nc1 | -2.48% |
| O=C(O)CCn1ccc2c(nnc3c(-c4ccc(F)cc4)cnn32)c1=O | -24.9% |
| COc1ncnc(N(C)C)c1NC(=O)c1cscc1C | -9.9% |
| COCCCN1CC2(CCN(Cc3cc(C(C)C)no3)CC2)CC1=O | 0.169% |
| O=C(Cn1cc(C2CC2)nn1)NC(c1cc(F)ccc1F)C1CC1 (stereo unspecified) | -5.37% |
| COc1cccc(-c2cc(C(=O)NCCCC(F)(F)F)[nH]n2)c1 | 30.9% |
| O=C(NCc1nc(C2CC2)no1)N1CCOC(c2cccc(F)c2)C1 (stereo unspecified) | 0.958% |
| COCCNC(=O)c1ccc2ccc(N(C)CC3CC3)n2c1 | -5.92% |
| O=S(=O)(Cc1cc(-c2ccccc2)no1)CC1CCCO1 (stereo unspecified) | -8.25% |
| Cc1ccc(N2CCO[C@H]3CN(Cc4cc(C)on4)CC[C@H]3C2=O)cn1 | -9.06% |
| CC(NC(=O)Cc1ccccc1F)C(=O)N1CCS(=O)(=O)CC1 (stereo unspecified) | -3.35% |
| CN(Cc1cccnc1)C[C@@H]1OC[C@H]2CN(Cc3ccoc3)CC[C@H]21 | -0.956% |
| CCn1cc(CN2C[C@H]3CC[C@@H]2CN(C(=O)C2CCC2)C3)cn1 | -6.91% |
| CCS(=O)(=O)N(C)CC(=O)Nc1ccc(Br)cn1 | 4.52% |
| Cc1ncc(CN2CCc3nc4cc(C(C)(C)C)nn4c(O)c3C2)n1C | 7.3% |
| O=C(CNc1cccc2c1CCCC2)Nc1ccccc1Br | 2.61% |
| Cc1cc(C)n(CC2CCCN2C(=O)c2cccn3ccnc23)n1 (stereo unspecified) | -1.92% |
| COCCNS(=O)(=O)c1cccc2c1CN(C(=O)c1ccoc1)CC2 | -10.7% |
| CC(=O)N1CCC(c2cncc(Cl)n2)CC1 | 2.82% |

| Compound | cytotoxicity at 70.5 h |
| --- | --- |
| Cc1ccc2oc(CN3CCC(C(=O)O)(n4ccnc4)CC3)c(C)c2c1 | -16.8% |
| CN1C(=O)CCc2cc(NS(=O)(=O)Cc3cccc(F)c3)ccc21 | -8.13% |
| CC(C)(C)CN(CCC#N)Cn1cc(Cl)cn1 | -3.15% |
| CCC/C=C/c1ccc(CN2CCN(C)CC2)cn1 | 26% |
| Cc1cnn(CC2CN(CC(=O)Nc3c(C)nn(C)c3C)CCO2)c1 (stereo unspecified) | -4.95% |
| CNS(=O)(=O)c1cccc(C(C)NCc2ccsc2)c1 (stereo unspecified) | -0.542% |
| Cc1sc(-c2ccco2)nc1C(=O)N(CC(N)=O)C1CCCC1 | -2.05% |
| CS(=O)(=O)NC[C@]12COC[C@H]1CN(C(=O)C1CCCCC1)C2 | -8.19% |
| CN(C)c1nccc(N2CCO[C@H]3CN(Cc4ccco4)C[C@H]32)n1 | 3.82% |
| Cc1ccc(CN2CCCC3(CCN(Cc4ccc(C)o4)C3)C2)o1 (stereo unspecified) | -11.5% |
| O=C(O)c1cc(S(=O)(=O)Nc2ccc(Cl)cc2)cc2c1OCCO2 | -10.1% |
| Cc1nc(-c2ccccc2F)sc1C(=O)N1CCC(=O)CC1 | -8.75% |
| CCSc1cc(C(=O)NCCC(=O)N(C)C)ccn1 | -103% |
| CCOc1cc(C(=O)NS(=O)(=O)c2cccc(C#N)c2)ccc1OC | -10% |
| Cc1nn(C)c2cn(C(C)C(=O)NCc3ccccn3)nc12 (stereo unspecified) | -11.2% |
| CC(Sc1nnc(C2CC2)n1CC(N)=O)c1ccc(F)c(Cl)c1 (stereo unspecified) | -6.61% |
| c1cnn(C2CN(c3nc(-c4ccncc4)nc4c3CCC4)C2)c1 | -1.27% |
| COc1ccccc1OC1(C(=O)O)CCN(c2cnccn2)CC1 | 47.4% |
